Patent US20090018134A1, “Compounds - 945” (AstraZeneca AB, priority 2007, published 2009)
pIC50: −log10 of the molar value.

Biological target: T1, mTOR (Homo sapiens, UniProt P42345)
T1 construct: FLAG; made in house
Experiment: In Vitro mTOR Kinase Assay (Echo), Test (a)(ii)
Format: biochemical
Settings: read-out: mTOR Kinase Assay (Echo)
Method in brief: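 FLAG-tagged truncated mTOR (residues 1362-2549), expressed in HEK293 and purified via the FLAG tag, phosphorylated a biotinylated peptide over 2 hours at room temperature. EDTA stopped the reaction. Phospho-T389 was detected overnight by AlphaScreen using the p70 S6K T389 antibody with Protein A/streptavidin beads; IC50 reported.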

T1 sequence (P42345 1362-2549): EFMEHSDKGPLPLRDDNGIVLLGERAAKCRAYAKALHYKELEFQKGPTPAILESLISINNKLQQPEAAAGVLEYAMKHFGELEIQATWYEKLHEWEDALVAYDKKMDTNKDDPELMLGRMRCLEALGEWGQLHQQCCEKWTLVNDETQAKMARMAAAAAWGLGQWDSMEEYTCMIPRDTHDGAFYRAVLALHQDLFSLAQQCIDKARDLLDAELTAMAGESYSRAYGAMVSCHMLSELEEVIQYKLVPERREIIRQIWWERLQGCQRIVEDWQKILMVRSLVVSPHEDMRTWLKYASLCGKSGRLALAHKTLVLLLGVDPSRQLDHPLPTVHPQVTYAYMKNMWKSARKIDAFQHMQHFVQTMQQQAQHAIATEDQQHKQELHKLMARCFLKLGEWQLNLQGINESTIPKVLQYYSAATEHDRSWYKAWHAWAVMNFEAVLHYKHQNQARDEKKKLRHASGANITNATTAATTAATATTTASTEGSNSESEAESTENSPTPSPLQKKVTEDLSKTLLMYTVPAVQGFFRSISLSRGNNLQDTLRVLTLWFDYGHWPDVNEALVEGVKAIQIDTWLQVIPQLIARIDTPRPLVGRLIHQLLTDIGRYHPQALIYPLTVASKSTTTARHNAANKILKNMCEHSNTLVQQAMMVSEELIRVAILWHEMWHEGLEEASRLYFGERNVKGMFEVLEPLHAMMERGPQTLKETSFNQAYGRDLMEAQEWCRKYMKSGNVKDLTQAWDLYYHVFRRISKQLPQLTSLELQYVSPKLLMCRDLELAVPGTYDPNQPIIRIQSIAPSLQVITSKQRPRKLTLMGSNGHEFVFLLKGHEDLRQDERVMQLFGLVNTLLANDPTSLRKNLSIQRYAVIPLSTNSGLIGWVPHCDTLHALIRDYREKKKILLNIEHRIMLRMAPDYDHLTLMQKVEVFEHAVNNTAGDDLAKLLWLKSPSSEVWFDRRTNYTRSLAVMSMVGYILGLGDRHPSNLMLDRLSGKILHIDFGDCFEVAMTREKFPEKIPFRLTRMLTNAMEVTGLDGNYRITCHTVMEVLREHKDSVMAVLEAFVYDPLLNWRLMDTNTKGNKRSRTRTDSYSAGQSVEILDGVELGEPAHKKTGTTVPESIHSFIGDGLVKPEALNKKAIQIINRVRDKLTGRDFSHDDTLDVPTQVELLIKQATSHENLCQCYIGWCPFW

In order of falling pIC50:
1. C[C@H]1COCCN1c1cc(C2(S(C)(=O)=O)CCC2)nc(-c2ccc(NC(=O)NCCCO)cc2)n1 [Example 5j, 3-(3-hydroxypropyl)-1-[4-[4-[(3S)-3-methylmorpholin-4-yl]-6-(1-methylsulfonylcyclobutyl)pyrimidin-2-yl]phenyl]urea]  9.62
2. C[C@H]1COCCN1c1cc(C2(S(C)(=O)=O)CCC2)nc(-c2ccc(NC(=O)Nc3ccccn3)cc2)n1 [Example 5l, 1-[4-[4-[(3S)-3-methylmorpholin-4-yl]-6-(1-methylsulfonylcyclobutyl)pyrimidin-2-yl]phenyl]-3-pyridin-2-yl-urea]  9.61
3. C[C@H]1COCCN1c1cc(C2(S(C)(=O)=O)CCC2)nc(-c2ccc(NC(=O)Nc3cnn(C)c3)cc2)n1 [Example 5m, 1-[4-[4-[(3S)-3-methylmorpholin-4-yl]-6-(1-methylsulfonylcyclobutyl)pyrimidin-2-yl]phenyl]-3-(1-methylpyrazol-4-yl)urea]  9.16
4. C[C@H]1COCCN1c1cc(C2(S(=O)(=O)c3ccncc3)CC2)nc(-c2ccc(NC(=O)NCCO)cc2)n1 [Example 6f, 3-(2-hydroxyethyl)-1-[4-[4-[(3S)-3-methylmorpholin-4-yl]-6-(1-pyridin-4-ylsulfonylcyclopropyl)pyrimidin-2-yl]phenyl]urea]  9.10
5. CCNC(=O)Nc1ccc(-c2nc(N3CCOC[C@@H]3C)cc(C3(S(=O)(=O)c4ccncc4)CC3)n2)cc1 [Example 6d, 3-ethyl-1-[4-[4-[(3S)-3-methylmorpholin-4-yl]-6-(1-pyridin-4-ylsulfonylcyclopropyl)pyrimidin-2-yl]phenyl]urea]  9.06
6. C[C@H]1COCCN1c1cc(C2(S(=O)(=O)c3ccncc3)CC2)nc(-c2ccc(NC(=O)NC3CC3)cc2)n1 [Example 6m, 3-cyclopropyl-1-[4-[4-[(3S)-3-methylmorpholin-4-yl]-6-(1-pyridin-4-ylsulfonylcyclopropyl)pyrimidin-2-yl]phenyl]urea]  9.03
7. C[C@H]1COCCN1c1cc(C2(S(=O)(=O)c3ccncc3)CC2)nc(-c2ccc(NC(=O)NC3CCC3)cc2)n1 [Example 6, 3-Cyclobutyl-1-[4-[4-[(3S)-3-methylmorpholin-4-yl]-6-(1-pyridin-4-ylsulfonylcyclopropyl)pyrimidin-2-yl]phenyl]urea]  9.00
8. C[C@H]1COCCN1c1cc(C2(S(=O)(=O)c3ccncc3)CC2)nc(-c2ccc(NC(=O)Nc3cnn(C)c3)cc2)n1 [Example 6l, 1-[4-[4-[(3S)-3-methylmorpholin-4-yl]-6-(1-pyridin-4-ylsulfonylcyclopropyl)pyrimidin-2-yl]phenyl]-3-(1-methylpyrazol-4-yl)urea]  8.92
9. C[C@H]1COCCN1c1cc(C2(S(=O)(=O)c3ccncc3)CC2)nc(-c2ccc(NC(=O)NCCCO)cc2)n1 [Example 6k]  8.73
10. CC(C)S(=O)(=O)C1(c2cc(N3CCOC[C@@H]3C)nc(-c3ccc(NC(=O)NCCO)cc3)n2)CC1 [Example 7e, 3-(2-hydroxyethyl)-1-[4-[4-[(3S)-3-methylmorpholin-4-yl]-6-(1-propan-2-ylsulfonylcyclopropyl)pyrimidin-2-yl]phenyl]urea]  8.67
11. CCCNC(=O)Nc1ccc(-c2nc(N3CCOC[C@@H]3C)cc(C3(S(=O)(=O)c4ccncc4)CC3)n2)cc1 [Example 6g, 1-[4-[4-[(3S)-3-methylmorpholin-4-yl]-6-(1-pyridin-4-ylsulfonylcyclopropyl)pyrimidin-2-yl]phenyl]-3-propyl-urea]  8.65
12. CCNC(=O)Nc1ccc(-c2nc(N3CCOC[C@@H]3C)cc(C3(S(=O)(=O)C(C)C)CC3)n2)cc1 [Example 7a, 1-ethyl-3-[4-[4-[(3S)-3-methylmorpholin-4-yl]-6-(1-propan-2-ylsulfonylcyclopropyl)pyrimidin-2-yl]phenyl]urea]  8.64
13. CCCNC(=O)Nc1ccc(-c2nc(N3CCOC[C@@H]3C)cc(C3(S(C)(=O)=O)CCC3)n2)cc1 [Example 5h, 1-[4-[4-[(3S)-3-methylmorpholin-4-yl]-6-(1-methylsulfonylcyclobutyl)pyrimidin-2-yl]phenyl]-3-propyl-urea]  8.63
14. C[C@H]1COCCN1c1cc(C2(S(=O)(=O)c3ccncc3)CC2)nc(-c2ccc(NC(=O)Nc3ccccn3)cc2)n1 [Example 6a, 1-[4-[4-[(3S)-3-methylmorpholin-4-yl]-6-(1-pyridin-4-ylsulfonylcyclopropyl)pyrimidin-2-yl]phenyl]-3-pyridin-2-yl-urea]  8.53
15. CNC(=O)Nc1ccc(-c2nc(N3CCOC[C@@H]3C)cc(C3(S(=O)(=O)C(C)C)CC3)n2)cc1 [Example 7, 3-Methyl-1-[4-[4-[(3S)-3-methylmorpholin-4-yl]-6-(1-propan-2-ylsulfonylcyclopropyl)pyrimidin-2-yl]phenyl]urea]  8.50
16. CC(C)NC(=O)Nc1ccc(-c2nc(N3CCOC[C@@H]3C)cc(C3(S(=O)(=O)c4ccncc4)CC3)n2)cc1 [Example 6c, 1-[4-[4-[(3S)-3-methylmorpholin-4-yl]-6-(1-pyridin-4-ylsulfonylcyclopropyl)pyrimidin-2-yl]phenyl]-3-propan-2-yl-urea]  8.49
17. C[C@H]1COCCN1c1cc(C2(S(C)(=O)=O)CCC2)nc(-c2ccc(NC(=O)Nc3ccc(C(F)(F)F)cc3)cc2)n1 [Example 5k, 1-[4-[4-[(3S)-3-methylmorpholin-4-yl]-6-(1-methylsulfonylcyclobutyl)pyrimidin-2-yl]phenyl]-3-[4-(trifluoromethyl)phenyl]urea]  8.48
18. CC(C)S(=O)(=O)C1(c2cc(N3CCOC[C@@H]3C)nc(-c3ccc(NC(=O)NC4CC4)cc3)n2)CC1 [Example 7d, 3-cyclopropyl-1-[4-[4-[(3S)-3-methylmorpholin-4-yl]-6-(1-propan-2-ylsulfonylcyclopropyl)pyrimidin-2-yl]phenyl]urea]  8.42
19. C[C@H]1COCCN1c1cc(C2(S(C)(=O)=O)CCC2)nc(-c2ccc(NC(=O)NC3CCC3)cc2)n1 [Example 5d, 3-cyclobutyl-1-[4-[4-[(3S)-3-methylmorpholin-4-yl]-6-(1-methylsulfonylcyclobutyl)pyrimidin-2-yl]phenyl]urea]  8.41
20. C[C@H]1COCCN1c1cc(C2(S(=O)(=O)c3ccncc3)CC2)nc(-c2ccc(NC(=O)Nc3ccc(C(F)(F)F)cc3)cc2)n1 [Example 6i, 1-[4-[4-[(3S)-3-methylmorpholin-4-yl]-6-(1-pyridin-4-ylsulfonylcyclopropyl)pyrimidin-2-yl]phenyl]-3-[4-(trifluoromethyl)phenyl]urea]  8.34
21. C[C@H]1COCCN1c1cc(C2(S(=O)(=O)c3ccncc3)CC2)nc(-c2ccc(NC(=O)NC(C)(C)CO)cc2)n1 [Example 6j, 3-(1-hydroxy-2-methyl-propan-2-yl)-1-[4-[4-[(3S)-3-methylmorpholin-4-yl]-6-(1-pyridin-4-ylsulfonylcyclopropyl)pyrimidin-2-yl]phenyl]urea]  8.23
22. CC(C)CNC(=O)Nc1ccc(-c2nc(N3CCOC[C@@H]3C)cc(C3(S(=O)(=O)c4ccncc4)CC3)n2)cc1 [Example 6b, 1-[4-[4-[(3S)-3-methylmorpholin-4-yl]-6-(1-pyridin-4-ylsulfonylcyclopropyl)pyrimidin-2-yl]phenyl]-3-(2-methylpropyl)urea]  8.21
23. CC(C)S(=O)(=O)C1(c2cc(N3CCOC[C@@H]3C)nc(-c3ccc(NC(=O)NC4CCC4)cc3)n2)CC1 [Example 7c, 3-cyclobutyl-1-[4-[4-[(3S)-3-methylmorpholin-4-yl]-6-(1-propan-2-ylsulfonylcyclopropyl)pyrimidin-2-yl]phenyl]urea]  8.19
24. C[C@H]1COCCN1c1cc(C2(S(C)(=O)=O)CCC2)nc(-c2ccc(NC(=O)NC(C)(C)CO)cc2)n1 [Example 5f, 3-(1-hydroxy-2-methyl-propan-2-yl)-1-[4-[4-[(3S)-3-methylmorpholin-4-yl]-6-(1-methylsulfonylcyclobutyl)pyrimidin-2-yl]phenyl]urea]  8.13
25. C[C@H]1COCCN1c1cc(C2(S(C)(=O)=O)CCC2)nc(-c2ccc(NC(=O)NCc3ncc[nH]3)cc2)n1 [Example 5n, 3-(1H-imidazol-2-ylmethyl)-1-[4-[4-[(3S)-3-methylmorpholin-4-yl]-6-(1-methylsulfonylcyclobutyl)pyrimidin-2-yl]phenyl]urea]  8.08
26. CC(C)S(=O)(=O)C1(c2cc(N3CCOC[C@@H]3C)nc(-c3ccc(NC(=O)NC(C)(C)CO)cc3)n2)CC1 [Example 7f, 3-(1-hydroxy-2-methyl-propan-2-yl)-1-[4-[4-[(3S)-3-methylmorpholin-4-yl]-6-(1-propan-2-ylsulfonylcyclopropyl)pyrimidin-2-yl]phenyl]urea]  8.04
27. CC(C)CNC(=O)Nc1ccc(-c2nc(N3CCOC[C@@H]3C)cc(C3(S(C)(=O)=O)CCC3)n2)cc1 [Example 5i, 1-[4-[4-[(3S)-3-methylmorpholin-4-yl]-6-(1-methylsulfonylcyclobutyl)pyrimidin-2-yl]phenyl]-3-(2-methylpropyl)urea]  8.01
28. CC(C)NC(=O)Nc1ccc(-c2nc(N3CCOC[C@@H]3C)cc(C3(S(=O)(=O)C(C)C)CC3)n2)cc1 [Example 7b, 1-[4-[4-[(3S)-3-methylmorpholin-4-yl]-6-(1-propan-2-ylsulfonylcyclopropyl)pyrimidin-2-yl]phenyl]-3-propan-2-yl-urea]  7.74
29. C[C@H]1COCCN1c1cc(C2(S(C)(=O)=O)CCC2)nc(-c2ccc(NC(=O)NCCN(C)C)cc2)n1 [Example 5g, 3-(2-dimethylaminomethyl)-1-[4-[4-[(3S)-3-methylmorpholin-4-yl]-6-(1-methylsulfonylcyclobutyl)pyrimidin-2-yl]phenyl]urea]  7.18
30. C[C@H]1COCCN1c1cc(C2(S(=O)(=O)c3ccncc3)CC2)nc(-c2ccc(NC(=O)NCCN(C)C)cc2)n1 [Example 6e, 3-(2-dimethylaminoethyl)-1-[4-[4-[(3S)-3-methylmorpholin-4-yl]-6-(1-pyridin-4-ylsulfonylcyclopropyl)pyrimidin-2-yl]phenyl]urea]  7.17

Same assay, conditions: table of enzyme assay Test (a)(ii); read-out: Test (a)(ii) IC50

In order of rising pIC50:
1. C[C@H]1COCCN1c1cc(C2(S(C)(=O)=O)CCC2)nc(-c2ccc(NC(=O)NC(C)(C)CO)cc2)n1 [Example 5f, 3-(1-hydroxy-2-methyl-propan-2-yl)-1-[4-[4-[(3S)-3-methylmorpholin-4-yl]-6-(1-methylsulfonylcyclobutyl)pyrimidin-2-yl]phenyl]urea]  8.31
2. C[C@H]1COCCN1c1cc(C2(S(C)(=O)=O)CCC2)nc(-c2ccc(NC(=O)NC3CCC3)cc2)n1 [Example 5d, 3-cyclobutyl-1-[4-[4-[(3S)-3-methylmorpholin-4-yl]-6-(1-methylsulfonylcyclobutyl)pyrimidin-2-yl]phenyl]urea]  8.56
3. C[C@H]1COCCN1c1cc(C2(S(C)(=O)=O)CCC2)nc(-c2ccc(NC(=O)Nc3cnn(C)c3)cc2)n1 [Example 5m, 1-[4-[4-[(3S)-3-methylmorpholin-4-yl]-6-(1-methylsulfonylcyclobutyl)pyrimidin-2-yl]phenyl]-3-(1-methylpyrazol-4-yl)urea]  9.22
4. C[C@H]1COCCN1c1cc(C2(S(C)(=O)=O)CCC2)nc(-c2ccc(NC(=O)Nc3ccccn3)cc2)n1 [Example 5l, 1-[4-[4-[(3S)-3-methylmorpholin-4-yl]-6-(1-methylsulfonylcyclobutyl)pyrimidin-2-yl]phenyl]-3-pyridin-2-yl-urea]  9.63
5. C[C@H]1COCCN1c1cc(C2(S(C)(=O)=O)CCC2)nc(-c2ccc(NC(=O)NCCCO)cc2)n1 [Example 5j, 3-(3-hydroxypropyl)-1-[4-[4-[(3S)-3-methylmorpholin-4-yl]-6-(1-methylsulfonylcyclobutyl)pyrimidin-2-yl]phenyl]urea]  9.76
